Values quoted from earlier work as cited in patent publication US20100297147A1, “COMPOSITIONS AND METHODS FOR MODULATING TLR14 ACTIVITY” (WYETH, priority 2006, published 2010).

Test system: postnatal day 4 rat cerebellar granule neurons
Details: positive control, used at 10 uM

## C[C@@H](N)[C@H]1CC[C@H](C(=O)Nc2ccncc2)CC1 [Y-27632]
  neurite outgrowth in the presence of myelin (known activity of control compound): known to induce neurite outgrowth in the presence of myelin
